Experimental data taken from patent US7759331B2, “Pyridine-containing macroheterococylic compounds as kinase inhibitors” (Janssen Pharmaceutica NV, priority 2006, dated 2010).

Experiments:
Assay in all cases: Protein kinase selectivity panel
Format in all cases: biochemical
Conditions in all cases: 1.0 μM compound, 10 μM ATP
[1] = target: T1, Aurora-A(h) (Homo sapiens, UniProt O14965)
T1 sequence (O14965 1-403): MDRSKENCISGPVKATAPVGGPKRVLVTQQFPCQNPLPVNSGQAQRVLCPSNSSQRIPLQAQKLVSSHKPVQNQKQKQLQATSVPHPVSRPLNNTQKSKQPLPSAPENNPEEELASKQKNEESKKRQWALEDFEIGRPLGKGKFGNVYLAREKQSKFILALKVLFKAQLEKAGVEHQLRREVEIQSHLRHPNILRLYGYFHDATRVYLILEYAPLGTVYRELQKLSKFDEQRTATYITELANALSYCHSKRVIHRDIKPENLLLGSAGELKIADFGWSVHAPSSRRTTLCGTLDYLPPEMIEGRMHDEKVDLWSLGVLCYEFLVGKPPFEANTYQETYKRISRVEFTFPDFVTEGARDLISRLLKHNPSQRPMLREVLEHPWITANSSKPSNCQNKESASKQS
Outline: (§1)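 Kinase, its appropriate substrate, and 10 μM ATP were combined with 1.0 μM compound. Phosphorylation was then allowed to proceed within the time-linear range and measured.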

[2] = target: T2, IKKα(h) (Homo sapiens, UniProt O15111)
T2 sequence (O15111 1-745): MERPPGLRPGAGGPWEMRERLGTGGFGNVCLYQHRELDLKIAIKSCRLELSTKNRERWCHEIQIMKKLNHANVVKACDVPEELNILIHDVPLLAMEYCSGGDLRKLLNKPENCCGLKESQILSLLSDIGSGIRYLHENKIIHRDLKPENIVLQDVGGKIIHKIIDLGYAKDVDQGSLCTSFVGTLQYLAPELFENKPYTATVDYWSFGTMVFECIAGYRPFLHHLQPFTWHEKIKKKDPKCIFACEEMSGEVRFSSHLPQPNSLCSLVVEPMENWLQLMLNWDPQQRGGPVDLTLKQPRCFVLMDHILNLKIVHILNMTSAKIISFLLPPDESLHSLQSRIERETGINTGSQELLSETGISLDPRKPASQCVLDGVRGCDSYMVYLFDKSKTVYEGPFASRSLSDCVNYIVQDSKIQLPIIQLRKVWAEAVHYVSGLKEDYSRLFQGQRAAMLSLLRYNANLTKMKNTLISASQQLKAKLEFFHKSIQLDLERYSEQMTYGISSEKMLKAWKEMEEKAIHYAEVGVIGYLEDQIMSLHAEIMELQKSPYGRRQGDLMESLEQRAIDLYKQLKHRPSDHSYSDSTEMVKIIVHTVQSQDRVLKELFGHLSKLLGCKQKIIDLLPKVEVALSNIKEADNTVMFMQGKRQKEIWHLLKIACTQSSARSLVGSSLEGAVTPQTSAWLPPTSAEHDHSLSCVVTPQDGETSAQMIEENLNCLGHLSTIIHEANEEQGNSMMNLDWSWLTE
Outline: as §1

[3] = target: CSK(h) (Homo sapiens, UniProt P41240)
Outline: as §1

[4] = target: MAPKAP-K2(h) (Homo sapiens, UniProt P49137)
Outline: as §1

[5] = target: Fms(h) (Homo sapiens, UniProt P07333)
Outline: as §1

[6] = target: Lyn(m) (Mus musculus, UniProt P25911)
Outline: as §1

[7] = target: T3, PKD2(h) (Homo sapiens, UniProt Q9BZL6)
T3 sequence (Q9BZL6 1-878): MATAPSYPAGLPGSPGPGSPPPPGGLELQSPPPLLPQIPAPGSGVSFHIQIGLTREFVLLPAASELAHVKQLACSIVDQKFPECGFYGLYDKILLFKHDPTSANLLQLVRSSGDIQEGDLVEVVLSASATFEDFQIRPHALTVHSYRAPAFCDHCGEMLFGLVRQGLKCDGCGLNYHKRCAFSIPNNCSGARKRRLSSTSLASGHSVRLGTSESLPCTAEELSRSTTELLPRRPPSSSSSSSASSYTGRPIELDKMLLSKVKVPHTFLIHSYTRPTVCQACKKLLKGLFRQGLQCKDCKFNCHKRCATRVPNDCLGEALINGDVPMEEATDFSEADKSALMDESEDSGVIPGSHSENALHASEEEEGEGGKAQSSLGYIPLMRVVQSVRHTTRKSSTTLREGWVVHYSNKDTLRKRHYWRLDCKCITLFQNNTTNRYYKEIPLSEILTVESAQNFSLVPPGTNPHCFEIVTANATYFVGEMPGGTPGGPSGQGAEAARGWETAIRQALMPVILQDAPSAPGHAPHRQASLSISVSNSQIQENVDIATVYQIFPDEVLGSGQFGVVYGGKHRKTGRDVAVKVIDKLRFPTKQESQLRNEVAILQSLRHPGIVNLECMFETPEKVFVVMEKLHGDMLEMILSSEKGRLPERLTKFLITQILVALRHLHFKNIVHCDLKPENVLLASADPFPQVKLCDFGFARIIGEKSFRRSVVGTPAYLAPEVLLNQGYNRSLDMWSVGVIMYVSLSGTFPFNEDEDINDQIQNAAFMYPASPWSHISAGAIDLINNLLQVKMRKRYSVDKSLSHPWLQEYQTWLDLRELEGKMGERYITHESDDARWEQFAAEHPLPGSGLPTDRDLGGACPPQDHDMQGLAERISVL
Outline: as §1

[8] = target: ROCK-II(h) (Homo sapiens, UniProt O75116)
Outline: as §1

[9] = target: CDK5/p35(h) (Homo sapiens, UniProt Q00535)
Outline: as §1

[10] = target: Rsk3(h) (Homo sapiens, UniProt Q15349)
Outline: as §1

Rsk3(h), sequence (Q15349 whole entry): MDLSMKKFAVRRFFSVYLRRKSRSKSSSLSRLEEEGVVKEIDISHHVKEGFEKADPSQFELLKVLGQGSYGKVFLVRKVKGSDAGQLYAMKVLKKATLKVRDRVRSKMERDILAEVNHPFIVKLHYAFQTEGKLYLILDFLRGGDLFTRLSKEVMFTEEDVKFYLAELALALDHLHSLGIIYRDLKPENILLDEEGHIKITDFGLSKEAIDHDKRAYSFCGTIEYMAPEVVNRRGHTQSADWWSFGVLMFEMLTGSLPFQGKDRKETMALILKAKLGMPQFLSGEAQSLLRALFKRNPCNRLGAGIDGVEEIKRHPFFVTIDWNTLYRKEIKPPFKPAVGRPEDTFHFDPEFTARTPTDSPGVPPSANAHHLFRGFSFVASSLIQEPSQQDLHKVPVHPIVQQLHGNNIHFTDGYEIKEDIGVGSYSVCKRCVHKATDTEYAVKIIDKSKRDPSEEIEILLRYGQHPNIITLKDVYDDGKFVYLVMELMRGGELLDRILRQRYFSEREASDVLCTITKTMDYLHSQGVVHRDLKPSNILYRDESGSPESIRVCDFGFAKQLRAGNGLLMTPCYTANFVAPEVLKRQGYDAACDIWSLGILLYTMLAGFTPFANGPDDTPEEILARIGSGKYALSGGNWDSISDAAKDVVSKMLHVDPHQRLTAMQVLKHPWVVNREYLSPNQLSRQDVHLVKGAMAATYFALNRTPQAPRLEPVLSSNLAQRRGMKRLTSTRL
MAPKAP-K2(h), sequence (P49137 whole entry): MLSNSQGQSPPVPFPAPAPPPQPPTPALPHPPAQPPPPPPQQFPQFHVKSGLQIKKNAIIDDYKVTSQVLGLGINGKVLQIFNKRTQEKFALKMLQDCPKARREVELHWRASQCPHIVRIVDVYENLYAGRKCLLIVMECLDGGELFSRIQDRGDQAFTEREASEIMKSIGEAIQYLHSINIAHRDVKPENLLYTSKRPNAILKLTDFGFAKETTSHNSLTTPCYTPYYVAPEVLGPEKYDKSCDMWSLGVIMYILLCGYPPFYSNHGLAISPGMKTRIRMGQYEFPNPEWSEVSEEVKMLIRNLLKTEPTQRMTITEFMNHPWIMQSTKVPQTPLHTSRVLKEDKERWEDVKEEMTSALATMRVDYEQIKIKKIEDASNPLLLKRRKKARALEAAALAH
Lyn(m), sequence (P25911 whole entry): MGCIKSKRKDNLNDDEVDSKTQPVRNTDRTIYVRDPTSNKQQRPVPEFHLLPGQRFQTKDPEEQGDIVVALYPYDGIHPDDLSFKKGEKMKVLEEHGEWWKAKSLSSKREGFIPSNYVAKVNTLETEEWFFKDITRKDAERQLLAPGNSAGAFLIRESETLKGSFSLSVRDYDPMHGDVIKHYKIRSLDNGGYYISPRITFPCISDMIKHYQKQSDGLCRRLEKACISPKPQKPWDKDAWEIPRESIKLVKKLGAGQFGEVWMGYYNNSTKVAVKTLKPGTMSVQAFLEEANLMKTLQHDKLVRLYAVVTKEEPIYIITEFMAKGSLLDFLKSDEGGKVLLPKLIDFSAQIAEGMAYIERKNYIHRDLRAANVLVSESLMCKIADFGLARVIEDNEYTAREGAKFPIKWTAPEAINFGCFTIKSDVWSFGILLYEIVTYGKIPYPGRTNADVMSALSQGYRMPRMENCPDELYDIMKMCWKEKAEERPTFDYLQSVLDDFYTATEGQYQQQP
CDK5/p35(h), sequence (Q00535 whole entry): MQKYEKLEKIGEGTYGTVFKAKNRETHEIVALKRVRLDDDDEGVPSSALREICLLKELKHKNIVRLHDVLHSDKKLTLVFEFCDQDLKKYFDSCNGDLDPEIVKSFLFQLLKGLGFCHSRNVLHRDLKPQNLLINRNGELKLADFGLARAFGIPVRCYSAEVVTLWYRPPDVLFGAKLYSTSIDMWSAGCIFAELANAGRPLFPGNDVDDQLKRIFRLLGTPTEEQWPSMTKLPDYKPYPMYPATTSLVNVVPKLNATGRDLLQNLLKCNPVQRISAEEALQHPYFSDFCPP
CDK5/p35(h), sequence (Q15078 whole entry partner): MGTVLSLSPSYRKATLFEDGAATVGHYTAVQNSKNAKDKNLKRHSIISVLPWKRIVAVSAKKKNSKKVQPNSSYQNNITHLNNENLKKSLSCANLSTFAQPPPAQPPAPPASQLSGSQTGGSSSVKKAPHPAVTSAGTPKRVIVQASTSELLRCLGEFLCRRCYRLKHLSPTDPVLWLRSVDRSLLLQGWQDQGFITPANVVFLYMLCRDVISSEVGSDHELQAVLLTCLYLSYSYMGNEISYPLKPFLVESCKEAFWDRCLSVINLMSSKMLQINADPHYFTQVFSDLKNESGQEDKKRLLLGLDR
Fms(h), sequence (P07333 20-972): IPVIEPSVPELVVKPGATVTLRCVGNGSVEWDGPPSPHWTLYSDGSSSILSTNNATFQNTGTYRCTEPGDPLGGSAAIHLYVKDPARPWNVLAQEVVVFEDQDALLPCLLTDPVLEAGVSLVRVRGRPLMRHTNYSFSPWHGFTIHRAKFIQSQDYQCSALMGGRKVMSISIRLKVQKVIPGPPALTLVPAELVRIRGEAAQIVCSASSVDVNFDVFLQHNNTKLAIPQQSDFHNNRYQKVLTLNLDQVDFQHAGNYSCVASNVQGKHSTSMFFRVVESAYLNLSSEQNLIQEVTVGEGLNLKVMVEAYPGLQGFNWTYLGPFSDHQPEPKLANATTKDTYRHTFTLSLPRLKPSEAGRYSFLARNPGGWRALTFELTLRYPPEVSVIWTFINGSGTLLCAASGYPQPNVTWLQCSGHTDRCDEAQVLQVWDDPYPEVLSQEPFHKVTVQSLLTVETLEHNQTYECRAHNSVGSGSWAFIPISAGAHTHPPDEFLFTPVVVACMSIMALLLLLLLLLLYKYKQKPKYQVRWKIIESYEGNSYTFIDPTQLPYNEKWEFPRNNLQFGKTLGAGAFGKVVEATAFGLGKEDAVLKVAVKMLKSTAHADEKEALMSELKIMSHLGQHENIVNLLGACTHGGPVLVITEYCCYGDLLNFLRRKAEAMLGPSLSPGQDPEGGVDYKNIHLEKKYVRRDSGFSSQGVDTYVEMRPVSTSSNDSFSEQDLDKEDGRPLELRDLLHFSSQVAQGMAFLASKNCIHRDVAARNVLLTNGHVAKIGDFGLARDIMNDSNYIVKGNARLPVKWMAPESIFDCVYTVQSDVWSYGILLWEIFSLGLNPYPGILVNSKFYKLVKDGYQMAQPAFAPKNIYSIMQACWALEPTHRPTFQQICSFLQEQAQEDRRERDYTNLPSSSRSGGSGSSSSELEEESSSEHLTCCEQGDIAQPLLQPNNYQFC
ROCK-II(h), sequence (O75116 whole entry): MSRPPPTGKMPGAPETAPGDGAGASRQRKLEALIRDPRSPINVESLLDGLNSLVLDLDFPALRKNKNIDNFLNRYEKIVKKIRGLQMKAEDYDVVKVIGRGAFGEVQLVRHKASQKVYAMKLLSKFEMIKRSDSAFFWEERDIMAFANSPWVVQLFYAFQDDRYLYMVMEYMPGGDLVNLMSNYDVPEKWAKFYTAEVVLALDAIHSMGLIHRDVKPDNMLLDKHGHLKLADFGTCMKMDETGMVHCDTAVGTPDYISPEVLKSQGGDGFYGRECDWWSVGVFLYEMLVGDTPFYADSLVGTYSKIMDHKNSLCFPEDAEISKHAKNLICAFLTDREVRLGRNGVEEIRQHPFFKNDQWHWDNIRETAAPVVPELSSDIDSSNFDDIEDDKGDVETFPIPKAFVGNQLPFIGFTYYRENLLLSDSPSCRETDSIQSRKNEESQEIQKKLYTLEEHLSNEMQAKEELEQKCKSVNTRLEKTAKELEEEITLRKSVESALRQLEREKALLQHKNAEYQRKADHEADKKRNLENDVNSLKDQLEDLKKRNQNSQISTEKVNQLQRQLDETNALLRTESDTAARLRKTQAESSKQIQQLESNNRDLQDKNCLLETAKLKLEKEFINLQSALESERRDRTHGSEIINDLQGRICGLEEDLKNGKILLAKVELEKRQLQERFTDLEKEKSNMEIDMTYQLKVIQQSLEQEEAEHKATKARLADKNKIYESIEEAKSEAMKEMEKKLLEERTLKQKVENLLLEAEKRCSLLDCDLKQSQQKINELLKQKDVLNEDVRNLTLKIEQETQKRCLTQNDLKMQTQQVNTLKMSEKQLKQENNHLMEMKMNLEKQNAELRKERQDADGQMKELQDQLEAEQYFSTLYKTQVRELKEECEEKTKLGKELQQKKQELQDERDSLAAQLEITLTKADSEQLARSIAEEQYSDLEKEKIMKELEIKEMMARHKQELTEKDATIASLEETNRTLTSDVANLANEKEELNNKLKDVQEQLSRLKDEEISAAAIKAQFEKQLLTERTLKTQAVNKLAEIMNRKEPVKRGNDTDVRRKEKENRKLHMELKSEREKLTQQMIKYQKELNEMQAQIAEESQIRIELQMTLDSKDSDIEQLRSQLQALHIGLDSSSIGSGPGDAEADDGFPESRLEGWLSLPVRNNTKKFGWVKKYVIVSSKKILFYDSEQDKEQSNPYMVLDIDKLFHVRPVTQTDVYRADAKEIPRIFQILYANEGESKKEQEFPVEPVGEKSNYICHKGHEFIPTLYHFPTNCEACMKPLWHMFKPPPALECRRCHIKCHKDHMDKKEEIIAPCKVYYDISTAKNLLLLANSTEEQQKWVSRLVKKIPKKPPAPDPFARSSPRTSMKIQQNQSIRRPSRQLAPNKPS
CSK(h), sequence (P41240 whole entry): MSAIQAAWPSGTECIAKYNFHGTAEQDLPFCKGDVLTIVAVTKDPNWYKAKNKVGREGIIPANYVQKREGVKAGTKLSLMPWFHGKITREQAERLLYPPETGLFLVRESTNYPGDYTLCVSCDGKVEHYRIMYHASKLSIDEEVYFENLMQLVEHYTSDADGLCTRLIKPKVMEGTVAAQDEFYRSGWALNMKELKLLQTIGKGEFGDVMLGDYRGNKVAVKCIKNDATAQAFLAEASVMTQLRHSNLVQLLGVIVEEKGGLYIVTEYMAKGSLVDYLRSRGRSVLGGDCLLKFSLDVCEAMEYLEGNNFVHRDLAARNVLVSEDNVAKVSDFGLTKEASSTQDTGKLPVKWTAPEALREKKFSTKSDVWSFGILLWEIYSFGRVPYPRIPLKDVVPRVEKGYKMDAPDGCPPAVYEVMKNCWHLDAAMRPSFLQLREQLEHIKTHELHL

Compound	Activity at Protein Kinase Assays (% of control), Aurora-A(h) [1]	Activity at Protein Kinase Assays (% of control), IKKα(h) [2]	Activity at Protein Kinase Assays (% of control), CSK(h) [3]	Activity at Protein Kinase Assays (% of control), MAPKAP-K2(h) [4]	Activity at Protein Kinase Assays (% of control), Fms(h) [5]	Activity at Protein Kinase Assays (% of control), Lyn(m) [6]	Activity at Protein Kinase Assays (% of control), PKD2(h) [7]	Activity at Protein Kinase Assays (% of control), ROCK-II(h) [8]	Activity at Protein Kinase Assays (% of control), CDK5/p35(h) [9]	Activity at Protein Kinase Assays (% of control), Rsk3(h) [10]
CN(C)c1nc2ccc1CCCCn1cc(c3ccccc31)C1=C(C(=O)NC1=O)c1cn(c3ccccc13)CCC2 [Cpd 1, 31-(dimethylamino)-5,15,25,32-tetraazaheptacyclo[28.2.2.1^5,12.1^18,25.0^6,11.0^13,17.0^19,24]hexatriaconta-1(32),6,8,10,12(36),13(17),18(35),19,21,23,30,33-dodecaene-14,16-dione]	109 % of control	92 % of control	95 % of control	98 % of control	94 % of control	90 % of control	100 % of control	110 % of control	99 % of control	33 % of control
CN(C)c1cc2cc(n1)CCCn1cc(c3ccccc31)C1=C(C(=O)NC1=O)c1cn(c3ccccc13)CCC2 [Cpd 2, 20-(dimethylamino)-4,14,19,26-tetraazaheptacyclo[24.6.1.1^7,14.1^18,22.0^2,6.0^8,13.0^27,32]pentatriaconta-1(33),2(6),7(35),8,10,12,18(34),19,21,27,29,31-dodecaene-3,5-dione]	111 % of control	133 % of control	133 % of control	101 % of control	101 % of control	102 % of control	97 % of control	103 % of control	105 % of control	5 % of control
O=C1NC(=O)C2=C1c1cn(c3ccccc13)CCCc1cc(nc(N3CCCC3)c1)CCCn1cc2c2ccccc21 [Cpd 6, 20-pyrrolidin-1-yl-4,14,19,26-tetraazaheptacyclo[24.6.1.1^7,14.1^18,22.0^2,6.0^8,13.0^27,32]pentatriaconta-1(33),2(6),7(35),8,10,12,18(34),19,21,27,29,31-dodecaene-3,5-dione]	111 % of control	132 % of control	125 % of control	108 % of control	99 % of control	99 % of control	103 % of control	107 % of control	99 % of control	5 % of control
O=C1NC(=O)C2=C1c1cn(c3ccccc13)CCCc1ccc(c(N3CCCC3)n1)CCCn1cc2c2ccccc21 [Cpd 7, 31-pyrrolidin-1-yl-5,15,25,30-tetraazaheptacyclo[27.2.2.1^5,12.1^18,25.0^6,11.0^13,17.0^19,24]pentatriaconta-1(31),6,8,10,12(35),13(17),18(34),19,21,23,29,32-dodecaene-14,16-dione]	106 % of control	121 % of control	129 % of control	95 % of control	106 % of control	104 % of control	115 % of control	104 % of control	104 % of control	25 % of control
